ChEMBL document CHEMBL5154704 (Bioorg Med Chem, 2022)
pEC50: −log10 of the molar value.

Columns and labels:
[1] = biological target: Free fatty acid receptor 1 (Homo sapiens, UniProt O14842); assay: Agonist activity at human FFA1 expressed in CHO cells assessed as increase in calcium level measured by Fluo-4-AM staining based FLIPR assay; format: functional, cell-based
[2] = Toxicity in ICR mouse at 500 mg/kg, ig measured after 7 days; format: organism-based; conditions: in vivo, po, 168 h, time 7 day

Free fatty acid receptor 1, sequence (O14842 whole entry): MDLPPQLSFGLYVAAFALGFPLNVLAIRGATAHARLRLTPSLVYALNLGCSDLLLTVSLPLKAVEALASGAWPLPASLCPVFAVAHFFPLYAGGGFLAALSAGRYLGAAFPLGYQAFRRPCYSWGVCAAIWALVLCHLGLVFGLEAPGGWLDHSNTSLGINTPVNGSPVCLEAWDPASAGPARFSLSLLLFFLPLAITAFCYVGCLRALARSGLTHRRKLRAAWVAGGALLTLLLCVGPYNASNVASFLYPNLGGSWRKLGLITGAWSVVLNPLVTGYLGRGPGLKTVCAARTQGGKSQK

Compound: Cc1cc(OCCCS(C)(=O)=O)ccc1-c1cccc(COc2ccc(OCC(=O)O)c(F)c2)c1
- pEC50 [1]: 7.21

Compound: COc1ccc2cc(-c3cccc(COc4ccc(OCC(=O)O)c(F)c4)c3)ccc2c1
- Activity [2]: Non-Toxic
